Columns and labels:
A549-ACE2 [1] = test: drug-induced phospholipidosis relative to tamoxifen; higher = more phospholipidosis
[2] = system: A549-ACE2 infected with SARS-CoV-2; test: cell count relative to DMSO; higher = less toxic; conditions: 24 h
U2OS [3] = test: cell viability relative to DMSO; higher = less toxic; conditions: 72 h
Calu-3 [4] = test: as above; conditions: 72 h
Vero E6 [5] = test: as above; conditions: 72 h
Caco-2 [6] = test: as above; conditions: 72 h
HepG2 [7] = test: as above; conditions: 72 h
[8] = system: A549-ACE2 infected with SARS-CoV-2; test: SARS-CoV-2 infection rate relative to DMSO; higher = more infection; conditions: 24 h
A549-ACE2 [9] = test: phospholipidosis EC50; higher = less potent phospholipidosis inducer
U2OS [10] = test: drug sensitivity score (DSS) for viability; higher = more toxic; extreme values may be limits of the assay; conditions: 72 h
Calu-3 [11] = test: as above; conditions: 72 h
Vero E6 [12] = test: as above; conditions: 72 h
Caco-2 [13] = test: as above; conditions: 72 h
HepG2 [14] = test: as above; conditions: 72 h
Calu-3 [15] = test: relative viability EC50 (midpoint between 100% and the lowest measured viability); higher = less toxic; conditions: 72 h
Vero E6 [16] = test: as above; conditions: 72 h
[17] = system: A549-ACE2 infected with SARS-CoV-2; test: morphology score (similarity to uninfected cells); higher = more like uninfected cells; conditions: 24 h
U2OS [18] = test: relative viability EC50 (midpoint between 100% and the lowest measured viability); higher = less toxic; conditions: 72 h
Caco-2 [19] = test: as above; conditions: 72 h
HepG2 [20] = test: as above; conditions: 72 h

Nc1ncccc1-c1nc2ccc(-c3ccccc3)nc2n1-c1ccc(C2(N)CCC2)cc1 [ARQ-092]
drug-induced phospholipidosis [%], A549-ACE2 [1]
Conditions	0.3 µM	0.833333 µM	3.33333 µM	6.66667 µM	10 µM	30 µM
24 h	1.77	12	89.4	198	175	50.3
48 h	3.37	9.82	86.6	–	138	36.8
72 h	2.32	7.77	–	–	–	–

Conditions	SARS-CoV-2 infection rate [%]	cell count [%]	cell viability [%]	morphology score	phospholipidosis EC50 [µM]
A549-ACE2 [9], 24 h	–	–	–	–	3.22
A549-ACE2 [9], 48 h	–	–	–	–	1.25
Caco-2 [6], 1 nM	–	–	94.7	–	–
Caco-2 [6], 10 nM	–	–	97.9	–	–
Caco-2 [6], 100 nM	–	–	87.4	–	–
Caco-2 [6], 1000 nM	–	–	68	–	–
Caco-2 [6], 10000 nM	–	–	52.8	–	–
Calu-3 [4], 1 nM	–	–	98.3	–	–
Calu-3 [4], 10 nM	–	–	108	–	–
Calu-3 [4], 100 nM	–	–	95.7	–	–
Calu-3 [4], 1000 nM	–	–	76.3	–	–
Calu-3 [4], 10000 nM	–	–	8.8	–	–
HepG2 [7], 1 nM	–	–	102	–	–
HepG2 [7], 10 nM	–	–	95.2	–	–
HepG2 [7], 100 nM	–	–	90.4	–	–
HepG2 [7], 1000 nM	–	–	72.4	–	–
HepG2 [7], 10000 nM	–	–	51.4	–	–
U2OS [3], 1 nM	–	–	99.8	–	–
U2OS [3], 10 nM	–	–	99.4	–	–
U2OS [3], 100 nM	–	–	102	–	–
U2OS [3], 1000 nM	–	–	91.9	–	–
U2OS [3], 10000 nM	–	–	68.2	–	–
Vero E6 [5], 1 nM	–	–	95.1	–	–
Vero E6 [5], 10 nM	–	–	102	–	–
Vero E6 [5], 100 nM	–	–	86.5	–	–
Vero E6 [5], 1000 nM	–	–	82.2	–	–
Vero E6 [5], 10000 nM	–	–	84.7	–	–
[2], 0.3 µM	–	96	–	–	–
[2], 3 µM	–	98	–	–	–
[2], 10 µM	–	94	–	–	–
[2], 30 µM	–	46	–	–	–
[8], 0.3 µM	107	–	–	–	–
[8], 3 µM	51	–	–	–	–
[8], 10 µM	25	–	–	–	–
[8], 30 µM	78	–	–	–	–
[17], 0.3 µM	–	–	–	-0.1	–
[17], 3 µM	–	–	–	0.72	–
[17], 10 µM	–	–	–	0.54	–
[17], 30 µM	–	–	–	-0.21	–

Conditions	drug sensitivity score	relative viability EC50 [µM]
Caco-2 [13]	7.1	–
Calu-3 [11]	8.7	–
Calu-3 [15]	–	1.52
HepG2 [14]	6.1	–
U2OS [10]	2.7	–
Vero E6 [12]	3.3	–
Vero E6 [16]	–	> 10

Cc1ccc(NC(=O)Nc2cc(C(F)(F)F)ccc2F)cc1Nc1ccc2c(c1)NC(=O)/C2=C\c1ccc[nH]1 [GNF-5837]
drug-induced phospholipidosis [%], A549-ACE2 [1]
Conditions	0.3 µM	0.833333 µM	3.33333 µM	6.66667 µM	10 µM	30 µM
24 h	4.96	25.4	116	132	160	164
48 h	4.94	9.4	80.5	95.6	96.1	120
72 h	3.67	5.1	59.1	70.1	78.2	91.4

Conditions	SARS-CoV-2 infection rate [%]	cell count [%]	cell viability [%]	morphology score	phospholipidosis EC50 [µM]
A549-ACE2 [9], 24 h	–	–	–	–	2.17
A549-ACE2 [9], 48 h	–	–	–	–	2.34
A549-ACE2 [9], 72 h	–	–	–	–	2.6
Caco-2 [6], 1 nM	–	–	105	–	–
Caco-2 [6], 10 nM	–	–	97.6	–	–
Caco-2 [6], 100 nM	–	–	103	–	–
Caco-2 [6], 1000 nM	–	–	94.5	–	–
Caco-2 [6], 10000 nM	–	–	75.7	–	–
Calu-3 [4], 1 nM	–	–	97.9	–	–
Calu-3 [4], 10 nM	–	–	96.4	–	–
Calu-3 [4], 100 nM	–	–	100	–	–
Calu-3 [4], 1000 nM	–	–	109	–	–
Calu-3 [4], 10000 nM	–	–	96.9	–	–
HepG2 [7], 1 nM	–	–	92.5	–	–
HepG2 [7], 10 nM	–	–	98.7	–	–
HepG2 [7], 100 nM	–	–	98.5	–	–
HepG2 [7], 1000 nM	–	–	103	–	–
HepG2 [7], 10000 nM	–	–	39	–	–
U2OS [3], 1 nM	–	–	99.6	–	–
U2OS [3], 10 nM	–	–	97.2	–	–
U2OS [3], 100 nM	–	–	97.2	–	–
U2OS [3], 1000 nM	–	–	98.2	–	–
U2OS [3], 10000 nM	–	–	85.5	–	–
Vero E6 [5], 1 nM	–	–	107	–	–
Vero E6 [5], 10 nM	–	–	107	–	–
Vero E6 [5], 100 nM	–	–	97	–	–
Vero E6 [5], 1000 nM	–	–	106	–	–
Vero E6 [5], 10000 nM	–	–	83.5	–	–
[2], 0.3 µM	–	100	–	–	–
[2], 3 µM	–	105	–	–	–
[2], 10 µM	–	115	–	–	–
[2], 30 µM	–	96	–	–	–
[8], 0.3 µM	103	–	–	–	–
[8], 3 µM	85	–	–	–	–
[8], 10 µM	22	–	–	–	–
[8], 30 µM	44	–	–	–	–
[17], 0.3 µM	–	–	–	-0.15	–
[17], 3 µM	–	–	–	0.36	–
[17], 10 µM	–	–	–	0.82	–
[17], 30 µM	–	–	–	0.59	–

Conditions	drug sensitivity score	relative viability EC50 [µM]
Caco-2 [13]	1.7	–
Caco-2 [19]	–	> 10
Calu-3 [11]	0	–
Calu-3 [15]	–	> 10
HepG2 [14]	3	–
HepG2 [20]	–	3.46
U2OS [10]	0.4	–
U2OS [18]	–	> 10
Vero E6 [12]	0.2	–
Vero E6 [16]	–	> 10

O=C(NCCN1CCC2(CC1)C(=O)NCN2c1cccc(F)c1)c1ccc(F)c(F)c1 [ML298]
drug-induced phospholipidosis [%], A549-ACE2 [1]
Conditions	0.3 µM	0.833333 µM	3.33333 µM	6.66667 µM	10 µM	30 µM
24 h	1.51	2.03	17.2	46.9	89.3	113
48 h	7.03	7.88	17.8	36.7	79.7	127
72 h	6.97	7.75	18.7	39.7	90.5	–

Conditions	SARS-CoV-2 infection rate [%]	cell count [%]	cell viability [%]	morphology score	phospholipidosis EC50 [µM]
A549-ACE2 [9], 24 h	–	–	–	–	7.34
A549-ACE2 [9], 48 h	–	–	–	–	9.19
A549-ACE2 [9], 72 h	–	–	–	–	8.25
Caco-2 [6], 1 nM	–	–	98	–	–
Caco-2 [6], 10 nM	–	–	99.7	–	–
Caco-2 [6], 100 nM	–	–	95.2	–	–
Caco-2 [6], 1000 nM	–	–	91.1	–	–
Caco-2 [6], 10000 nM	–	–	89.9	–	–
Calu-3 [4], 1 nM	–	–	96.7	–	–
Calu-3 [4], 10 nM	–	–	104	–	–
Calu-3 [4], 100 nM	–	–	101	–	–
Calu-3 [4], 1000 nM	–	–	93.9	–	–
Calu-3 [4], 10000 nM	–	–	89.1	–	–
HepG2 [7], 1 nM	–	–	97.3	–	–
HepG2 [7], 10 nM	–	–	103	–	–
HepG2 [7], 100 nM	–	–	101	–	–
HepG2 [7], 1000 nM	–	–	97.7	–	–
HepG2 [7], 10000 nM	–	–	89.1	–	–
U2OS [3], 1 nM	–	–	103	–	–
U2OS [3], 10 nM	–	–	102	–	–
U2OS [3], 100 nM	–	–	104	–	–
U2OS [3], 1000 nM	–	–	98.5	–	–
U2OS [3], 10000 nM	–	–	94.2	–	–
Vero E6 [5], 1 nM	–	–	101	–	–
Vero E6 [5], 10 nM	–	–	105	–	–
Vero E6 [5], 100 nM	–	–	102	–	–
Vero E6 [5], 1000 nM	–	–	107	–	–
Vero E6 [5], 10000 nM	–	–	89.8	–	–
[2], 0.3 µM	–	102	–	–	–
[2], 3 µM	–	102	–	–	–
[2], 10 µM	–	116	–	–	–
[2], 30 µM	–	95	–	–	–
[8], 0.3 µM	100	–	–	–	–
[8], 3 µM	83	–	–	–	–
[8], 10 µM	32	–	–	–	–
[8], 30 µM	25	–	–	–	–
[17], 0.3 µM	–	–	–	-0.08	–
[17], 3 µM	–	–	–	0.43	–
[17], 10 µM	–	–	–	0.74	–
[17], 30 µM	–	–	–	0.22	–

Conditions	drug sensitivity score	relative viability EC50 [µM]
Caco-2 [13]	0	–
Caco-2 [19]	–	> 10
Calu-3 [11]	0.1	–
Calu-3 [15]	–	> 10
HepG2 [14]	0	–
HepG2 [20]	–	> 10
U2OS [10]	0	–
U2OS [18]	–	> 10
Vero E6 [12]	0	–
Vero E6 [16]	–	> 10
